From publication PMC9289672, “Optimization of Antibacterial Activity in Tibetan Swine α-Helix Peptide TP by Site-Directed Mutagenesis” (Frontiers in Microbiology, 2022)
Read-outs that look alike come from different tables or passages of the source. Where no end group is shown, it is not given here.

Key:
[1] = tested on: Pseudomonas aeruginosa PAO1
Text: (§1) The bacteria strains Escherichia coli ATCC 25922, Escherichia coli UB1005, Salmonella typhimurium ATCC 14028, Salmonella typhimurium C7731, Pseudomonas aeruginosa ATCC 27853, Pseudomonas aeruginosa PAO1, Staphylococcus aureus ATCC 29213, Staphylococcus aureus ATCC 25923, Methicillin-resistant Staphylococcus aureus (MRSA) 43300, Enterococcus faecalis ATCC 29212, and Staphylococcus epidermidis ATCC 12228 were obtained from the College of Veterinary Medicine, Northeast Agricultural University (Harbin, China).
(§2) The bacteria were cultured overnight in the MHB medium and transferred to the new MHB the next day until the bacteria reached the exponential growth stage. The bacteria were diluted with MHB to 2 × 10^5 CFU/ml. About 50 μl of polypeptide and equal volume of bacterial suspension was added to a 96-well plate to give the final concentration of polypeptide between 1 and 128 μm. The last two columns are negative (MHB only) and positive (bacterial and MHB) controls and incubated at 37°C for 18–24 h. Optical density was measured at an absorbance wavelength of 492 nm using a microplate reader (Tecan GENios F129004, Tecan, Austria). At least three independent measurements were taken. Each trial was conducted two times in parallel. A total of three independent assays were carried out.

[2] = tested on: Staphylococcus aureus ATCC 29213
Text: as §1, §2

Escherichia coli UB1005 = conditions: MHB, bacteria diluted to 2 × 10^5 CFU/ml, peptide 1-128 μm, 37°C 18-24 h, OD 492 nm; three independent assays, two in parallel
Text: as §1, §2

[3] = tested on: Enterococcus faecalis ATCC 29212
Text: as §1, §2

[4] = tested on: Pseudomonas aeruginosa ATCC 27853
Text: as §1, §2

[5] = tested on: Salmonella typhimurium C7731; conditions: MHB, bacteria diluted to 2 × 10^5 CFU/ml, peptide 1-128 μm, 37°C 18-24 h, OD 492 nm; three independent assays, two in parallel
Text: as §1, §2

[6] = tested on: Methicillin-resistant Staphylococcus aureus (MRSA) 43300; conditions: Methicillin-resistant 43300
Text: as §1, §2

[7] = tested on: Escherichia coli ATCC 25922
Text: as §1, §2

[8] = tested on: Staphylococcus aureus ATCC 25923
Text: as §1, §2

[9] = tested on: Staphylococcus epidermidis ATCC 12228
Text: as §1, §2

[10] = tested on: Salmonella typhimurium ATCC 14028
Text: as §1, §2

Gram-positive bacteria = experiment: Geometric mean of MIC and therapeutic index; assay type: cell-based; conditions: MHC/GM; 128 μm used when 50% hemolysis not observed at 128 μm
Description: as §2
(§3) Trp is a hydrophobic amino acid with aromatic side chains. It is a special amino acid in peptide design. Previous studies have pointed out that introducing amino acids will also bring toxicity while improving activity. […] For further evaluating the cell selectivity of the peptides, we also calculated the SI which defined as the ratio of MHC to the geometric mean (GM) (Dufourc, [2008]).

Gram-negative bacteria = experiment: Geometric mean of MIC and therapeutic index; assay type: cell-based; conditions: MHC/GM; 128 μm used when 50% hemolysis not observed at 128 μm
Description: as §2, §3

[11] = tested on: hRBCs (human red blood cells); experiment: Hemolytic activity; conditions: three independent assays, two in parallel
Description: (§5) The cytotoxicity of each peptide was assessed with IPEC-J12 and HEK 293T cells. […] Each trial was conducted two times in parallel. A total of three independent assays were carried out.

all strains in Table 2 = experiment: Geometric mean of MIC and therapeutic index; assay type: cell-based; conditions: MHC/GM; 128 μm used when 50% hemolysis not observed at 128 μm
Description: as §2
Trp is a hydrophobic amino acid with aromatic side chains. It is a special amino acid in peptide design. Previous studies have pointed out that introducing amino acids will also bring toxicity while improving activity. Therefore, at the beginning of the design, we predicted that selecting Trp as hydrophobic amino acid to substitute H-H position would bring certain toxicity to the peptide. Thus, as expected, the introduction of Trp increases the activity and toxicity of these peptides. […] Meanwhile, the virulence of TP(i+4) 1&2&5&6 and TP(i+4) 1&2&6&7 was lower than that of TP(i+4) 1&2&5&7. We infer that the location of hydrophobic centers can effectively reduce peptide toxicity by Trp substitution. For further evaluating the cell selectivity of the peptides, we also calculated the SI which defined as the ratio of MHC to the geometric mean (GM) (Dufourc, [2008]).

E. coli 25922 = assay type: cell-based, Escherichia coli; conditions: 25922, 4 h
Description: (§4) The salt and serum stability of polypeptides were determined by improved MIC method (Lv et al., [2014]). Peptides were incubated with BSA containing different final concentrations of salt ions (150 mM NaCl, 4.5 mM KCl, 6 μm NH4Cl, 8 μm ZnCl2, 1 mM MgCl2, 2 mM CaCl2, and 4 μm FeCl3) (Wang et al., [2018]). To determine the stability of the peptide in serum, peptide was incubated with different proportions of serum (50%, 100%) at 37°C for 4 h. The following steps are the same as those for antimicrobial activity. Each trial was conducted two times in parallel. A total of three independent assays were carried out.

[12] = tested on: hRBCs (human red blood cells)
Description: as §5

S. aureus 29213 = assay type: cell-based, Staphylococcus aureus; conditions: 29213, 4 h
Description: as §4

Substance	MIC, P. aeruginosa PAO1 [1]	MIC, S. aureus 29213 [2]	MIC, E. coli UB1005 (Escherichia coli UB1005)	MIC, E. faecalis 29212 [3]	MIC, P. aeruginosa 27853 [4]	MIC, S. typhimurium 7731 [5]	MIC, S. aureus 43300 [6]	MIC, E. coli 25922 [7]	MIC, S. aureus 25923 [8]	MIC, S. epidermidis 12228 [9]	MIC, S. typhimurium 14028 [10]	Therapeutic index (TI), Gram-positive bacteria (Gram-positive bacteria)	Therapeutic index (TI), Gram-negative bacteria (Gram-negative bacteria)	Therapeutic index (TI) / selectivity index (SI), All (all strains in Table 2)	MHC (concentration of peptide that causes hemolysis of 50% of human red blood cells) [12]	also measured
AKVVNKLTKGVAKLLK-NH2 [TP(i+4) 2&3]	128 µM	>128 µM	8 µM	>128 µM	128 µM	128 µM	>128 µM	32 µM	>128 µM	>128 µM	128 µM	1.00	2.00	1.41		MHC (concentration of peptide that causes hemolysis of 50% of human red blood cells) [11]: >128 µM
ASVVKKLTKGVAKLLK-NH2 [TP(i+4) 1&2]	8 µM	>128 µM	4 µM	>128 µM	16 µM	16 µM	>128 µM	4 µM	>128 µM	>128 µM	32 µM	1.00	12.70	3.56	>128 µM	MIC after incubation with 100% serum (E. coli 25922): 32 µM; MIC in the presence of Ca2+ (E. coli 25922): >64 µM; MIC in the presence of Fe3+ (E. coli 25922): 8 µM; MIC in the presence of K+ (E. coli 25922): 8 µM; MIC in the presence of Mg2+ (E. coli 25922): 32 µM; MIC in the presence of NH4+ (E. coli 25922): 8 µM; MIC in the presence of Na+ (E. coli 25922): >64 µM; MIC in the presence of Zn2+ (E. coli 25922): 2 µM; MIC, Control (E. coli 25922): 4 µM; MIC after incubation with 100% serum (S. aureus 29213): >64 µM; MIC in the presence of Ca2+ (S. aureus 29213): >64 µM; MIC in the presence of Fe3+ (S. aureus 29213): >64 µM; MIC in the presence of K+ (S. aureus 29213): >64 µM; MIC in the presence of Mg2+ (S. aureus 29213): >64 µM; MIC in the presence of NH4+ (S. aureus 29213): >64 µM; MIC in the presence of Na+ (S. aureus 29213): >64 µM; MIC in the presence of Zn2+ (S. aureus 29213): >64 µM; MIC, Control (S. aureus 29213): >64 µM
ASVVNKLTGGVAGLLK-NH2 [TP, reference compound]	>128 µM	>128 µM	>128 µM	>128 µM	>128 µM	>128 µM	>128 µM	>128 µM	>128 µM	>128 µM	>128 µM	1.00	1.00	1.00	>128 µM	
ASVVNKLTGKVAGLLK-NH2 [TP(i+4) 4]	64 µM	>128 µM	16 µM	>128 µM	64 µM	64 µM	>128 µM	16 µM	>128 µM	>128 µM	128 µM	1.00	2.83	1.68	>128 µM	
ASVVNKLTKGVAKLLK-NH2 [TP(i+4) 2]	32 µM	>128 µM	8 µM	>128 µM	64 µM	64 µM	>128 µM	16 µM	>128 µM	>128 µM	128 µM	1.00	3.56	1.89	>128 µM	
ASVVNKLTKKVAKLLK-NH2 [TP(i+4) 2&4]	8 µM	>128 µM	8 µM	>128 µM	32 µM	16 µM	>128 µM	8 µM	>128 µM	>128 µM	64 µM	1.00	8.00	2.83	>128 µM	
